Experiments:
[1] = test system: late watergrass; test: Test Example 1: herbicidal activity, application before weed generation under submerged conditions (Table 16, symbol A); type: in vivo, late watergrass (Echinochloa oryzicola); settings: 320 g/ha applied herbicide
Method in brief: (§1)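 Submerged Wagner pots (alluvial soil, 4 cm water) sown with weed seeds and planted with 2.5-leaf rice seedlings; emulsifiable concentrate diluted in water applied to water surface on sowing day. Held in greenhouse at 25-30 °C; injury scored 0-5 by herbicidal rate after three weeks.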

[2] = test system: wild oat; test: Test Example 5: herbicidal effect by foliage application, plastic box (Table 20, symbol I); type: in vivo, wild oat (Avena fatua); settings: foliage application, AAH 320 g/ha, evaluated three weeks after application
Method in brief: (§2)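 Post-emergence foliar test in sterilized diluvial soil. Compound applied as water-diluted emulsion at a predetermined rate to 14-day-old plants; evaluation at three weeks.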

[3] = test system: oval-leafed pondweed; test: Test Example 1: herbicidal activity, application before weed generation under submerged conditions (Table 16, symbol C); type: in vivo, oval-leafed pondweed (Monochoria vaginalis); settings: 320 g/ha applied herbicide
Method in brief: as §1

[4] = test system: Italian ryegrass; test: Test Example 4: herbicidal effect by soil treatment (Table 19, symbol K); type: in vivo, Italian ryegrass (Lolium multiflorum); settings: amount of applied herbicide 320 g/ha
Method in brief: (§3)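 Scoring uses the grading scale of an earlier test, three weeks post-application. Treatment consists of spraying a diluted emulsion formulation across the surface of sterilized diluvial soil in which seeds are buried near 1.5 cm deep; boxes are kept in a greenhouse between 25° C. and 30° C.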

[5] = test system: lambsquarters; test: Test Example 5: herbicidal effect by foliage application, plastic box (Table 20, symbol O); type: in vivo, lambsquarters (Chenopodium album); settings: foliage application, AAH 320 g/ha, evaluated three weeks after application
Method in brief: as §2

[6] = test system: windgrass; test: Test Example 5: herbicidal effect by foliage application, plastic box (Table 20, symbol L); type: in vivo, windgrass (Apera spica-venti); settings: foliage application, AAH 320 g/ha, evaluated three weeks after application
Method in brief: as §2

[7] = test system: persian speedwell; test: Test Example 4: herbicidal effect by soil treatment (Table 19, symbol R); type: in vivo, Persian speedwell (Veronica persica); settings: amount of applied herbicide 320 g/ha
Method in brief: as §3

[8] = test system: barnyard grass; test: Test Example 4: herbicidal effect by soil treatment (Table 19, symbol H); type: in vivo, barnyard grass (Echinochloa crus-galli); settings: amount of applied herbicide 320 g/ha
Method in brief: as §3

[9] = test system: blackgrass; test: Test Example 5: herbicidal effect by foliage application, plastic box (Table 20, symbol J); type: in vivo, blackgrass (Alopecurus myosuroides); settings: foliage application, AAH 320 g/ha, evaluated three weeks after application
Method in brief: as §2

[10] = test system: blackgrass; test: Test Example 4: herbicidal effect by soil treatment (Table 19, symbol J); type: in vivo, blackgrass (Alopecurus myosuroides); settings: amount of applied herbicide 320 g/ha
Method in brief: as §3

[11] = test system: chickweed; test: Test Example 5: herbicidal effect by foliage application, plastic box (Table 20, symbol P); type: in vivo, common chickweed (Stellaria media); settings: foliage application, AAH 320 g/ha, evaluated three weeks after application
Method in brief: as §2

[12] = test system: velvetleaf; test: Test Example 4: herbicidal effect by soil treatment (Table 19, symbol M); type: in vivo, velvetleaf (Abutilon theophrasti); settings: amount of applied herbicide 320 g/ha
Method in brief: as §3

[13] = test system: southern crabgrass; test: Test Example 5: herbicidal effect by foliage application, plastic box (Table 20, symbol F); type: in vivo, southern crabgrass (Digitaria ciliaris); settings: foliage application, AAH 320 g/ha, evaluated three weeks after application
Method in brief: as §2

[14] = test system: barnyard grass; test: Test Example 5: herbicidal effect by foliage application, plastic box (Table 20, symbol H); type: in vivo, barnyard grass (Echinochloa crus-galli); settings: foliage application, AAH 320 g/ha, evaluated three weeks after application
Method in brief: as §2

[15] = test system: redroot pigweed; test: Test Example 5: herbicidal effect by foliage application, plastic box (Table 20, symbol N); type: in vivo, redroot pigweed (Amaranthus retroflexus); settings: foliage application, AAH 320 g/ha, evaluated three weeks after application
Method in brief: as §2

[16] = test system: Italian ryegrass; test: Test Example 5: herbicidal effect by foliage application, plastic box (Table 20, symbol K); type: in vivo, Italian ryegrass (Lolium multiflorum); settings: foliage application, AAH 320 g/ha, evaluated three weeks after application
Method in brief: as §2

[17] = test system: persian speedwell; test: Test Example 5: herbicidal effect by foliage application, plastic box (Table 20, symbol R); type: in vivo, Persian speedwell (Veronica persica); settings: foliage application, AAH 320 g/ha, evaluated three weeks after application
Method in brief: as §2

[18] = test system: windgrass; test: Test Example 4: herbicidal effect by soil treatment (Table 19, symbol L); type: in vivo, windgrass (Apera spica-venti); settings: amount of applied herbicide 320 g/ha
Method in brief: as §3

[19] = test system: barnyard grass; test: Test Example 3: herbicidal effect by foliage application, Wagner pot (Table 18, symbol H); type: in vivo, barnyard grass (Echinochloa crus-galli); settings: amount of applied herbicide 320 g/ha
Method in brief: (§4)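 Plants were sown in alluvial soil held under 0.1–0.5 cm standing water and grown 14 days in a greenhouse at 25–30 °C. An emulsifiable formulation, water-diluted to the set dose, was then sprayed onto the foliage, and effects were scored three weeks later using previously defined criteria.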

[20] = test system: velvetleaf; test: Test Example 5: herbicidal effect by foliage application, plastic box (Table 20, symbol M); type: in vivo, velvetleaf (Abutilon theophrasti); settings: foliage application, AAH 320 g/ha, evaluated three weeks after application
Method in brief: as §2

[21] = test system: Japanese bulrush; test: Test Example 1: herbicidal activity, application before weed generation under submerged conditions (Table 16, symbol B); type: in vivo, Japanese bulrush (Schoenoplectus juncoides); settings: 320 g/ha applied herbicide
Method in brief: as §1

[22] = test system: chickweed; test: Test Example 4: herbicidal effect by soil treatment (Table 19, symbol P); type: in vivo, common chickweed (Stellaria media); settings: amount of applied herbicide 320 g/ha
Method in brief: as §3

[23] = test system: green foxtail; test: Test Example 5: herbicidal effect by foliage application, plastic box (Table 20, symbol G); type: in vivo, green foxtail (Setaria viridis); settings: foliage application, AAH 320 g/ha, evaluated three weeks after application
Method in brief: as §2

[24] = test system: wild oat; test: Test Example 4: herbicidal effect by soil treatment (Table 19, symbol I); type: in vivo, wild oat (Avena fatua); settings: amount of applied herbicide 320 g/ha
Method in brief: as §3

[25] = test system: Chinese sprangletop; test: Test Example 3: herbicidal effect by foliage application, Wagner pot (Table 18, symbol D); type: in vivo, chinese sprangletop (Leptochloa chinensis); settings: amount of applied herbicide 320 g/ha
Method in brief: as §4

[26] = test system: redroot pigweed; test: Test Example 4: herbicidal effect by soil treatment (Table 19, symbol N); type: in vivo, redroot pigweed (Amaranthus retroflexus); settings: amount of applied herbicide 320 g/ha
Method in brief: as §3

[27] = test system: rice flat sedge; test: Test Example 3: herbicidal effect by foliage application, Wagner pot (Table 18, symbol E); type: in vivo, rice flat sedge (Cyperus iria); settings: amount of applied herbicide 320 g/ha
Method in brief: as §4

[28] = test system: southern crabgrass; test: Test Example 4: herbicidal effect by soil treatment (Table 19, symbol F); type: in vivo, southern crabgrass (Digitaria ciliaris); settings: amount of applied herbicide 320 g/ha
Method in brief: as §3

[29] = test system: green foxtail; test: Test Example 4: herbicidal effect by soil treatment (Table 19, symbol G); type: in vivo, green foxtail (Setaria viridis); settings: amount of applied herbicide 320 g/ha
Method in brief: as §3

[30] = test system: lambsquarters; test: Test Example 4: herbicidal effect by soil treatment (Table 19, symbol O); type: in vivo, lambsquarters (Chenopodium album); settings: amount of applied herbicide 320 g/ha
Method in brief: as §3

Compound: CSCc1ccc(-c2sc3ccc(F)cc3c2-c2c(O)c(C)nn(C)c2=O)cc1 [2-317]
- Herbicidal effect on A: late watergrass (grade 0-5) [1]: 3 (Herbicidal rate of 40% or more and less than 70%)
- I: wild oat, herbicidal effect (criteria 0-5) [2]: 5 (Herbicidal rate of 90% or more (almost completely withered))
- Herbicidal effect on C: oval-leafed pondweed (grade 0-5) [3]: 0 (Herbicidal rate of 5% or less (almost no effect))
- herbicidal effect on K: Italian ryegrass [4]: 4 (Herbicidal rate of 70% or more and less than 90%)
- O: lambsquarters, herbicidal effect (criteria 0-5) [5]: 5 (Herbicidal rate of 90% or more (almost completely withered))
- L: windgrass, herbicidal effect (criteria 0-5) [6]: 5 (Herbicidal rate of 90% or more (almost completely withered))
- herbicidal effect on R: persian speedwell [7]: 3 (Herbicidal rate of 40% or more and less than 70%)
- herbicidal effect on H: barnyard grass [8]: 5 (Herbicidal rate of 90% or more (almost completely withered))
- J: blackgrass, herbicidal effect (criteria 0-5) [9]: 4 (Herbicidal rate of 70% or more and less than 90%)
- herbicidal effect on J: blackgrass [10]: 1 (Herbicidal rate of 5% or more and less than 20%)
- P: chickweed, herbicidal effect (criteria 0-5) [11]: 5 (Herbicidal rate of 90% or more (almost completely withered))
- herbicidal effect on M: velvetleaf [12]: 4 (Herbicidal rate of 70% or more and less than 90%)
- F: southern crabgrass, herbicidal effect (criteria 0-5) [13]: 5 (Herbicidal rate of 90% or more (almost completely withered))
- H: barnyard grass, herbicidal effect (criteria 0-5) [14]: 5 (Herbicidal rate of 90% or more (almost completely withered))
- N: redroot pigweed, herbicidal effect (criteria 0-5) [15]: 5 (Herbicidal rate of 90% or more (almost completely withered))
- K: Italian ryegrass, herbicidal effect (criteria 0-5) [16]: 5 (Herbicidal rate of 90% or more (almost completely withered))
- R: persian speedwell, herbicidal effect (criteria 0-5) [17]: 5 (Herbicidal rate of 90% or more (almost completely withered))
- herbicidal effect on L: windgrass [18]: 0 (Herbicidal rate of 5% or less (almost no effect))
- herbicidal effect on H: barnyard grass [19]: 5 (Herbicidal rate of 90% or more (almost completely withered))
- M: velvetleaf, herbicidal effect (criteria 0-5) [20]: 5 (Herbicidal rate of 90% or more (almost completely withered))
- Herbicidal effect on B: Japanese bulrush (grade 0-5) [21]: 0 (Herbicidal rate of 5% or less (almost no effect))
- herbicidal effect on P: chickweed [22]: 0 (Herbicidal rate of 5% or less (almost no effect))
- G: green foxtail, herbicidal effect (criteria 0-5) [23]: 5 (Herbicidal rate of 90% or more (almost completely withered))
- herbicidal effect on I: wild oat [24]: 0 (Herbicidal rate of 5% or less (almost no effect))
- herbicidal effect on D: Chinese sprangletop [25]: 2 (Herbicidal rate of 20% or more and less than 40%)
- herbicidal effect on N: redroot pigweed [26]: 5 (Herbicidal rate of 90% or more (almost completely withered))
- herbicidal effect on E: rice flat sedge [27]: 5 (Herbicidal rate of 90% or more (almost completely withered))
- herbicidal effect on F: southern crabgrass [28]: 4 (Herbicidal rate of 70% or more and less than 90%)
- herbicidal effect on G: green foxtail [29]: 4 (Herbicidal rate of 70% or more and less than 90%)
- herbicidal effect on O: lambsquarters [30]: 5 (Herbicidal rate of 90% or more (almost completely withered))

Source: patent US20230085307A1, “PYRIDAZINONE COMPOUND AND HERBICIDE” (NISSAN CHEMICAL CORPORATION, priority 2019, published 2023)
